Measured values: patent US20250368648A1, “MULTI-CYCLIC IRAK AND FLT3 INHIBITING COMPOUNDS AND USES THEREOF” (CHILDREN'S HOSPITAL MEDICAL CENTER, priority 2022, published 2025)

Target: T1, FLT3 (Homo sapiens, UniProt P36888)
T1 sequence (P36888 27-993): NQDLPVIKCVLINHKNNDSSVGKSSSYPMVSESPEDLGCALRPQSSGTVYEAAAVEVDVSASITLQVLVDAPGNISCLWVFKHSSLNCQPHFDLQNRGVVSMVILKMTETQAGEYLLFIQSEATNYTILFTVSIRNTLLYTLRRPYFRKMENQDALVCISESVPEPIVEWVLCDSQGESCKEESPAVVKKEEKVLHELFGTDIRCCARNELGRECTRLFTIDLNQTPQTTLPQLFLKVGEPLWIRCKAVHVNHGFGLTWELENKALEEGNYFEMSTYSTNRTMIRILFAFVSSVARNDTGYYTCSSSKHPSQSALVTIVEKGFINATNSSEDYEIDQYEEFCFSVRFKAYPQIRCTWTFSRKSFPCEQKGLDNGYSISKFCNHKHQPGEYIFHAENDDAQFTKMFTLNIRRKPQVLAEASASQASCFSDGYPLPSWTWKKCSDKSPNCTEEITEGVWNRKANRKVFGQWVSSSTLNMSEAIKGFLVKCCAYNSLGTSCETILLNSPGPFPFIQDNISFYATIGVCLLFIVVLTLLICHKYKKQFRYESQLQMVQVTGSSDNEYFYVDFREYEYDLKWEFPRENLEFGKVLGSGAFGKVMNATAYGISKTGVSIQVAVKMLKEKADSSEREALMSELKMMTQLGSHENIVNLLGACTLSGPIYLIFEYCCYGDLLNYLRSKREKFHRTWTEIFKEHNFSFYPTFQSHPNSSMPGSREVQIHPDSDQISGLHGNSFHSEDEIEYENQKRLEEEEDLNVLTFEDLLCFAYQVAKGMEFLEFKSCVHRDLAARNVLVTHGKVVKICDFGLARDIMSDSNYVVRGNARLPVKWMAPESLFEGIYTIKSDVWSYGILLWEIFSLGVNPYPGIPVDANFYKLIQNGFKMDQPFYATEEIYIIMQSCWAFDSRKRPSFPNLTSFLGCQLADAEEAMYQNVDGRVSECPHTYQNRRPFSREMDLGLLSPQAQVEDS
Assay: Reaction Biology NanoBRET target engagement assay, FLT3
Type: cell-based
Settings: HEK-293 cells transfected with Kinase-NanoLuc fusion vector, live cells
Description: The NanoBRET assay measures kinase engagement in real time in the context of the intact cell. Unlike the previously described biochemical kinase assay methodologies in Examples 47 and 48, the NanoBRET assay measures the binding and activity characteristics under equilibrium conditions using full-length kinases in the presence of cellular concentrations of ATP in live, uncompromised cells. […] The assay uses a Kinase-NanoLuc® fusion vector expressing a kinase protein to which a luciferase tag has been added, a cell-permeant fluorescent NanoBRET™ tracer, a NanoLuc® substrate, and an extracellular NanoLuc® inhibitor. Upon expression of the luciferase-tagged kinase, cells will produce a strong BRET signal only in the presence of the NanoBRET™ tracer. The extracellular NanoLuc® inhibitor ensures that the BRET signal observed emanates only from live cells. Because the BRET signal has tight distance constraints, addition of the test compound will decrease the BRET signal if the compound competes with the NanoBRET™ tracer for binding to the kinase domain. Under the appropriate tracer conditions established by the manufacturer, quantitative intracellular affinity and relative potency can then be determined using Mass Action model equations.
HEK-293 cells were purchased from ATCC. FuGENEHD Transfection Reagent, Kinase-NanoLucfusion plasmids, Transfection Carrier DNA, NanoBRETTracers and dilution buffer, NanoBRETNano-Glo Substrate, Extracellular NanoLucInhibitor were obtained from Promega.
Assays were conducted following Promega assay protocol with some modifications. HEK-293 Cells were transiently transfected with Kinase-NanoLucFusion Vector DNA by FuGENEHD Transfection Reagent. Testing compounds were delivered into 384 well assay plate by Echo 550 (LabcyteInc, Sunnyvale, CA). Transfected cells were harvested and mixed with NanoBRETTracer Reagent and dispensed into 384 well plates and incubated at 37° C. in 5% CO2 cell culture incubator for 1 hour. The NanoBRETNano-Glo Substrate plus Extracellular NanoLucInhibitor Solution were added into the wells of the assay plate and incubated for 2-3 minutes at room temperature. The donor emission wavelength (460 nm) and acceptor emission wavelength (600 nm) were measured in the EnVisionplate reader. The BRET Ratios were calculated. BRET Ratio=[(Acceptor sample÷Donor sample)−(Acceptor no-tracer control÷Donor no-tracer control)]. The IC50 values of compounds were calculated with Prism GraphPad program.
• 1). Cultivate HEK-293 cells (70-80% confluence) appropriately prior to assay. Trypsinize and collect HEK-293 cells. • 2). Prepare lipid: DNA complexes as follows: • a. Prepare a 10 μg/ml solution of DNA in Opti-MEM without serum that consists of the following ratios of carrier DNA and DNA encoding NanoLuc® fusion. […] of Transfection Carrier DNA, […] of NanoLuc fusion vector DNA and 1 mL of Opti-MEM without phenol red. Mix thoroughly. • b. Add 30 μl of FuGENE HD Transfection Reagent into each milliliter of DNA mixture to form lipid: DNA complex. • c. Mix by inversion 10 times. • d. Incubate at ambient temperature for 20 minutes to allow complexes to form. • 3). In a sterile, conical tube, mix 1 part of lipid:DNA complex with 20 parts of HEK-293 cells in suspension. Mix gently by inversion 5 times. • 4). Dispense cells+lipid: DNA complex into a sterile tissue culture dish and incubate for 22-24 hours.
Each test compound is delivered from the compound source plate to the wells of 384-well white NBS plate by Echo 550.
3. Preparation of Cells with NanoBRET™ Tracer Reagent • 1). Remove medium from dish with transfected HEK-293 cells via aspiration, trypsinize and allow cells to dissociate from the dish. • 2). Neutralize trypsin using medium containing serum and centrifuge at 200× g for 5 minutes to pellet the cells. Adjust the cell density to […] cells/mL in Opti-MEM without phenol red. • 3). Prepare Complete 20× NanoBRET™ Tracer Reagent with Tracer Dilution Buffer. • 4). […]

SMILES	IC50 [nM]
COc1cc2ncc(-c3nc(N[C@H]4CNCC[C@@H]4F)c(F)cc3F)n2nc1C(C)(O)C(F)(F)F (single isomer, unassigned) [Compound 77a]	2
COc1cc2ncc(-c3nc(N[C@H]4CNC[C@@H]4F)c(F)cc3F)n2nc1C(C)(O)C(F)(F)F (single isomer, unassigned) [Compound 80a]	1
COc1cc2ncc(-c3nc(N[C@@H]4CCCNC4)c(F)cc3F)n2nc1C(C)(O)C(F)(F)F (single isomer, unassigned) [Compound 81a]	5
COc1cc2ncc(-c3nc(N[C@H]4CNCC[C@@H]4F)c(F)cc3F)n2nc1C1CC2(CCC2)C1 [Compound 10a, 3,5-difluoro-N-((3S,4S)-4-fluoropiperidin-3-yl)-6-(7-methoxy-6-(spiro[3.3]heptan-2-yl)imidazo[1,2-b]pyridazin-3-yl)pyridin-2-amine]	63
COc1cc2ncc(-c3nc(N[C@H]4CNC[C@@H]4F)c(F)cc3F)n2nc1C1CC2(CCC2)C1 [Compound 12a, 3,5-difluoro-N-((3S,4S)-4-fluoropyrrolidin-3-yl)-6-(7-methoxy-6-(spiro[3.3]heptan-2-yl)imidazo[1,2-b]pyridazin-3-yl)pyridin-2-amine]	13
COc1cc2ncc(-c3nc(N[C@H]4CNCC[C@@H]4F)c(F)cc3F)n2nc1C1CCC1 [Compound 15a, 6-(6-cyclobutyl-7-methoxyimidazo[1,2-b]pyridazin-3-yl)-3,5-difluoro-N-((3S,4S)-4-fluoropiperidin-3-yl)pyridin-2-amine]	< 0.5
COc1cc2ncc(-c3nc(N[C@H]4CNCC[C@@H]4F)c(F)cc3F)n2nc1C12CC(C1)C2 [Compound 67a, 6-(6-(bicyclo[1.1.1]pentan-1-yl)-7-methoxyimidazo[1,2-b]pyridazin-3-yl)-3,5-difluoro-N-((3S,4S)-4-fluoropiperidin-3-yl)pyridin-2-amine]	1
